Measurements as given in patent US9951055B2, “Thiazole-based inhibitors of scavenger receptor BI” (THE BROAD INSTITUTE, INC., priority 2012, dated 2018).
Where two headings read alike, the source gives them in different places.

Key:
murine SR-BI [1] = target: T1, murine SR-BI (Mus musculus, UniProt Q61009); experiment: DiI-HDL uptake assay (primary assay); type: cell-based
T1 construct: expressed in transfected cells; host or cells: ldlA[mSR-BI]; (CHO ldlA7 derivative lacking the LDL receptor)
T1 sequence (Q61009 1-509): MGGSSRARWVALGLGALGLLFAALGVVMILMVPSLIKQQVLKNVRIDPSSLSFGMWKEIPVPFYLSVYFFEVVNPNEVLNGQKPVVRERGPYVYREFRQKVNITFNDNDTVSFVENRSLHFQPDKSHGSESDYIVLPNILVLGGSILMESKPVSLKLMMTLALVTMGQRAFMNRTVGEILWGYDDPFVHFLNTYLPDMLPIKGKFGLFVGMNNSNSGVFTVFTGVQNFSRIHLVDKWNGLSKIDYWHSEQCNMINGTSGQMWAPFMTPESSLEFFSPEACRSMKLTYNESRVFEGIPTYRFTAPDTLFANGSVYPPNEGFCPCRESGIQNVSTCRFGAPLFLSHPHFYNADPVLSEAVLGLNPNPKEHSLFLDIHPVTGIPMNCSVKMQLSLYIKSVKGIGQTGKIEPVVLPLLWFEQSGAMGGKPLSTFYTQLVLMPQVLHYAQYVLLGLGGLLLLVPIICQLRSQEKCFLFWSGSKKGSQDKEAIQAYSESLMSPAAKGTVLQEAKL
Excerpt: The following cell lines were used in this study: • ldlA[mSR-BI] is a Chinese hamster ovary (CHO) cell line that overexpresses murine SR-BI, isoform 1 (NP_058021) and was obtained from the Assay Provider (Krieger Laboratory). This cell line was used for the primary assay and several secondary assays. […] This cell line was obtained from the Assay Provider. Assays DiI-HDL Uptake Assay (Primary Assay AID Nos. 488896, 493194, 540354 588392, 588553, 588548, 588754, 588828, 588833)
ldlA[mSR-BI]cells were plated into 384-well plates at 30 μl per well and incubated overnight. As a measurable surrogate for cholesterol uptake, human HDL particles were treated with the lipophilic fluorescent dye DiI and exposed to ldlA[mSR-BI]cells in lipoprotein-free media (Ham's F12/0.5% fatty acid-free Bovine Serum Albumin (BSA)/25 mM HEPES pH 7.4 plus 10 μg protein/ml DiI-HDL). Cells took up the DiI via SR-BI over 3 hours in the presence of compound. After significant uptake of the DiI, the cells became fluorescent. The level of fluorescence correlates with the amount of DiI uptake and can be measured with a standard plate reader (here a PerkinElmer EnVision plate reader was used). The uptake of lipid (represented by DiI) was inhibited by the positive control compound BLT-1 or with an excess of HDL untreated with DiI. Primary HTS data were analyzed in Genedata Screener Assay Analyzer, and were normalized against DMSO and the positive control (1 μM BLT-1). For the HTS, the average of two replicates was used to rank order activity and to choose compounds for retests. For dose studies, percent (%) activity was determined for each concentration and the concentration response curves (CRCs) were generated with Genedata Condeseo.
To identify novel inhibitors, SR-BI-mediated lipid uptake was measured in an engineered cell line that minimized potential uptake by other mechanisms, including via the LDL receptor (1). ldlA[mSR-BI]cells overexpress murine isoform 1 and selectively take up HDL lipid at similar levels as “has been reported for cultured mouse adrenal cells, perfused organs, and liver, adrenal gland and ovary in vivo” (1). This primary cell-based assay was used in a pilot screen that identified BLTs 1 through 5 (12). The assay was slightly modified from the original protocol of Nieland et al. to increase throughput and to ease automation procedures.

murine SR-BI [2] = target: T1, murine SR-BI; experiment: DiI-HDL uptake assay with washout; type: cell-based
Description: DiI-HDL Uptake Assay with Washout (SA 5: AID No. 588831)
This is a modification of the primary assay where cells are treated with compound prior to the addition of DiI-HDL but no compound is present during the DiI-HDL treatment period. ldlA[mSR-BI]cells were plated into 384-well plates at 30 μl per well and incubated overnight. Cells were treated with compound for 3 hours, then media were removed and the cells were washed with PBS before fresh lipoprotein-free media (Ham's F12/0.5% fatty acid-free Bovine Serum Albumin [BSA]/25 mM HEPES pH 7.4) was added with […] DiI-HDL. Cells took up the DiI via SR-BI over 3 hours in the absence of compound. After significant uptake of the DiI, the cells became fluorescent. The level of fluorescence correlates with the amount of DiI uptake and can be measured with a standard plate reader. The uptake of lipid (represented by DiI) was inhibited by the compound BLT-1.

| Compound | reduction in signal (DiI-HDL uptake) (murine SR-BI [1]; 1 μM, positive control in primary HTS) [fold] | reversibility of inhibition (murine SR-BI [2]) | higher potency than ITX-5061 (murine SR-BI [1]) | improved potency over the original hit (murine SR-BI [1]) [fold] | selectivity (murine SR-BI [1]) | IC50 (murine SR-BI [1]; read-out: IC50, DiI-HDL uptake) [nM] | inhibition after washout at the IC50 concentration (murine SR-BI [2]) | IC50 (murine SR-BI [2]; cells pre-treated, washed with PBS, DiI-HDL without compound, read-out: IC50 after washout) [nM] | reversibility of inhibition (murine SR-BI [2]; listed as ML278) | reversibility of inhibition (murine SR-BI [2]; listed as Probe 278) |
| --- | --- | --- | --- | --- | --- | --- | --- | --- | --- | --- |
| CCCCCCC1CCCC1=NNC(N)=S (stereo not shown) [BLT-1, reference compound] | > 2.2 | nonreversible covalent modifier of SR-BI | – | – | – | – | – | – | – | – |
| COCC(=O)N1CCc2cc(-c3csc(NC(=O)c4cc(OC)cc(OC)c4)n3)ccc21 [Compound 137, 3,5-Dimethoxy-N-(4-(1-(2-methoxyacetyl)indolin-5-yl)thiazol-2-yl)benzamide] | – | – | approximately 15 fold | > 20 | greater than 1000 | 2 | no inhibition | 300 | reversible inhibitor of HDL uptake | reversible inhibitor |
